Marks after values point to notes of the source that are not given here.
Experiments:
[1] = system: arrhythmia caused by ischemia/reperfusion insults in anaesthetic rats; assay: Ischemia/reperfusion arrhythmia in anaesthetic rats, intravenous injection; assay type: in vivo, rat; conditions: for incidence and duration of VT, VF, VE / ventricular arrhythmic / latency of ventricular arrhythmic: 3 mg/Kg intravenous (femoral vein), rats; for Occurrence time / VE Duration time / VE Incidence (%) / VF Duration time / VF Incidence (%) / VT Duration time / VT Incidence (%): intravenously injected per table title
Excerpt: (1) Protective Effects of the Tested Compounds on Myocardial Insults in Rats after Intravenously Injection
Arrhythmic potency induced by myocardial insults was used to assess the potential protective effect of the compounds.

TA98 = assay: Ames test, strain TA98; assay type: cell-based
Experimental: (§1) To assess the mutagenic effects of 5 compounds (IMM-004; IMM-065; IMM-127; IMM-128; IMM-313), the Ames test was performed in 4 strains (TA97; TA98; TA100; TA102). The experiment was conducted with compounds at 4 concentration levels (0.5, 5, 50 and 500 μg/dish). […]

[2] = system: isolated rat hearts subjected to ischemia-reperfusion (I/R); assay: Isolated heart subjected to ischemia/reperfusion injury (arrhythmia); conditions: for AAT: arrhythmic occurrence time, Time / VF (ventricular fibrillation) Incidence rate (%) / VPS (ventricular premature beats) Incidence rate (%) / VT (ventricular tachycardia) Incidence rate (%): 10^−6 M, isolated heart ischemia/reperfusion
Outline: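 Rat hearts perfused in vitro and subjected to ischemia-reperfusion after drug exposure. Recorded endpoints: duration of ventricular arrhythmia and incidence of ventricular extrasystole and VT/VF.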

TA102 = assay: Ames test, strain TA102; assay type: cell-based
Experimental: as §1

O=c1c2cc(Cl)ccc2[se]n1-c1ccccn1 [IMM-004, 5-chloro-2-(2-pyridyl)-1,2-benz-isoselenazol-3(2H)-one]
incidence and duration of VT, VF, VE / ventricular arrhythmic [1]: all reduced
latency of ventricular arrhythmic [1]: significantly prolonged
Occurrence time ([1]; 10 mg/Kg): 9.3 ± 10.0 s
VE Duration time ([1]; 10 mg/Kg): 4.7 ± 12.9 s
VE Incidence (%) ([1]; 10 mg/Kg): 100%
VF Duration time ([1]; 10 mg/Kg): 8.8 ± 7.4 s
VF Incidence (%) ([1]; 10 mg/Kg): 22.2%
VT Duration time ([1]; 10 mg/Kg): 30.2 ± 17.6 s
VT Incidence (%) ([1]; 10 mg/Kg): 88.9%
Occurrence time ([1]; 30 mg/Kg): 19.6 ± 24.1 s
VE Duration time ([1]; 30 mg/Kg): 0.4 ± 1.3 s
VE Incidence (%) ([1]; 30 mg/Kg): 66.7%
VF Duration time ([1]; 30 mg/Kg): 3.3 ± 5.7 s
VF Incidence (%) ([1]; 30 mg/Kg): 11.1* %
VT Duration time ([1]; 30 mg/Kg): 17.0 ± 12.6 s
VT Incidence (%) ([1]; 30 mg/Kg): 44.4** %
Occurrence time ([1]; 100 mg/Kg): 16.4 ± 25.1 s
VE Duration time ([1]; 100 mg/Kg): 5.5 ± 10.2 s
VE Incidence (%) ([1]; 100 mg/Kg): 66.7%
VF Duration time ([1]; 100 mg/Kg): 3.9 ± 6.8 s
VF Incidence (%) ([1]; 100 mg/Kg): 33.3%
VT Duration time ([1]; 100 mg/Kg): 22.7 ± 19.4 s
VT Incidence (%) ([1]; 100 mg/Kg): 55.5* %
TA98 +S9 (TA98; 0.5 μg/dish): 70.67 ± 6.85
TA98 −S9 (TA98; 0.5 μg/dish): 56.33 ± 1.25
TA98 +S9 (TA98; 5 μg/dish): 48.33 ± 11.95
TA98 −S9 (TA98; 5 μg/dish): 29.33 ± 0.94
TA98 +S9 (TA98; 50 μg/dish): 60.67 ± 26.64
TA98 −S9 (TA98; 50 μg/dish): 19.67 ± 3.29
TA98 +S9 (TA98; 500 μg/dish): 55.33 ± 15.92
TA98 −S9 (TA98; 500 μg/dish): 24.67 ± 4.71
protective effects on myocardial insults ([2]; 10^−6M, isolated heart): significant protective effects
AAT: arrhythmic occurrence time, Time [2]: 0.70 ± 0.33 min
VF (ventricular fibrillation) Incidence rate (%) [2]: 0** %
VPS (ventricular premature beats) Incidence rate (%) [2]: 37.5%
VT (ventricular tachycardia) Incidence rate (%) [2]: 37.5%
TA102 +S9 (TA102; 0.5 μg/dish): 328.67 ± 26.39
TA102 −S9 (TA102; 0.5 μg/dish): 164.67 ± 62.66
TA102 +S9 (TA102; 5 μg/dish): 250.67 ± 7.54
TA102 −S9 (TA102; 5 μg/dish): 218.67 ± 23.79
TA102 +S9 (TA102; 50 μg/dish): 297.33 ± 24.07
TA102 −S9 (TA102; 50 μg/dish): 52.67 ± 6.59
TA102 +S9 (TA102; 500 μg/dish): 284.00 ± 64.27
TA102 −S9 (TA102; 500 μg/dish): 16.00 ± 5.89

O=c1c2cc(F)ccc2[se]n1-c1ccccn1 [IMM-127, 5-fluoro-2-(2-pyridyl)-1,2-benz-isoselenazol-3(2H)-one]
incidence and duration of VT, VF, VE / ventricular arrhythmic [1]: all reduced
latency of ventricular arrhythmic [1]: significantly prolonged
Occurrence time ([1]; 10 mg/Kg): 15.5 ± 21.5 s
VE Duration time ([1]; 10 mg/Kg): 2.5 ± 6.4 s
VE Incidence (%) ([1]; 10 mg/Kg): 100%
VF Duration time ([1]; 10 mg/Kg): 6.6 ± 7.2 s
VF Incidence (%) ([1]; 10 mg/Kg): 22.2%
VT Duration time ([1]; 10 mg/Kg): 32.1 ± 26.1 s
VT Incidence (%) ([1]; 10 mg/Kg): 66.7%
Occurrence time ([1]; 30 mg/Kg): 9.6 ± 9.2 s
VE Duration time ([1]; 30 mg/Kg): 0.2 ± 0.5 s
VE Incidence (%) ([1]; 30 mg/Kg): 100%
VF Duration time ([1]; 30 mg/Kg): 3.2 ± 5.5 s
VF Incidence (%) ([1]; 30 mg/Kg): 11.1* %
VT Duration time ([1]; 30 mg/Kg): 18.0 ± 11.4 s
VT Incidence (%) ([1]; 30 mg/Kg): 66.7%
Occurrence time ([1]; 100 mg/Kg): 9.0 ± 19.7 s
VE Duration time ([1]; 100 mg/Kg): 2.2 ± 63 s
VE Incidence (%) ([1]; 100 mg/Kg): 88.9%
VF Duration time ([1]; 100 mg/Kg): 5.1 ± 7.8 s
VF Incidence (%) ([1]; 100 mg/Kg): 22.2%
VT Duration time ([1]; 100 mg/Kg): 31.1 ± 21.3 s
VT Incidence (%) ([1]; 100 mg/Kg): 44.4** %
TA98 +S9 (TA98; 0.5 μg/dish): 73.67 ± 4.63
TA98 −S9 (TA98; 0.5 μg/dish): 93.50 ± 10.50
TA98 +S9 (TA98; 5 μg/dish): 53.00 ± 5.72
TA98 −S9 (TA98; 5 μg/dish): 85.00 ± 5.00
TA98 +S9 (TA98; 50 μg/dish): 42.33 ± 7.41
TA98 −S9 (TA98; 50 μg/dish): 89.00 ± 10.61
TA98 +S9 (TA98; 500 μg/dish): 42.67 ± 5.31
TA98 −S9 (TA98; 500 μg/dish): 96.00 ± 4.90
AAT: arrhythmic occurrence time, Time [2]: 19.72 ± 4.42 min
VF (ventricular fibrillation) Incidence rate (%) [2]: 38%
VPS (ventricular premature beats) Incidence rate (%) [2]: 50%
VT (ventricular tachycardia) Incidence rate (%) [2]: 62.5%
TA102 +S9 (TA102; 0.5 μg/dish): 205.33 ± 17.98
TA102 −S9 (TA102; 0.5 μg/dish): 199.67 ± 17.13
TA102 +S9 (TA102; 5 μg/dish): 216.00 ± 21.42
TA102 −S9 (TA102; 5 μg/dish): 224.67 ± 16.34
TA102 +S9 (TA102; 50 μg/dish): 250.67 ± 15.43
TA102 −S9 (TA102; 50 μg/dish): 195.33 ± 35.22
TA102 +S9 (TA102; 500 μg/dish): 233.33 ± 16.11
TA102 −S9 (TA102; 500 μg/dish): 143.67 ± 19.01
